# Laboratory results from PMC10648875 (Antimicrobial Agents and Chemotherapy, 2023).
# Where “and” joins values, the source holds several entries; their conditions need not be identical. Equal values may be shown once.
# Assays:
# CTX-M-14 = CTX-M-14 (Escherichia coli, UniProt Q9L5C7); assay: Ki app of β-lactamase inhibition, purified enzyme; assay type: biochemical; settings: 10-minute preincubation; nitrocefin substrate
# Procedure: (§1) The majority of purified β-lactamase enzymes used in the study were either expressed and purified internally ([35]) or obtained from Emerald Biostructures (Bainbridge Island, WA, USA). L1 enzyme was purified as described in reference ([36]).
# (§2) Enzymes were mixed with BLIs at concentrations varying from 160 to 0.0027 µM in 50-mM Na-phosphate pH7.0, 0.1-mg/mL bovide serum albumin (BSA) (buffer A; 20-µM ZnCl2 was also added for all metalloenzymes) and incubated for 10 minutes at 37°C. Nitrocefin (50 µM) (10 µM for SHV-12) or 100 µM of imipenem (prewarmed at 37°C for 10 minutes) was added, and substrate cleavage profiles were recorded at 37°C at 490 nm every 10 seconds for 10 minutes or at 294 nm every 30 seconds for 1 hour for nitrocefin and imipenem, respectively. […] Ki app values (Ki for metalloenzymes) were calculated by the method of Waley ([37]).
# CTX-M-15 = CTX-M-15 (Escherichia coli, UniProt Q9EXV5); assay: Ki app of β-lactamase inhibition, purified enzyme; assay type: biochemical; settings: 10-minute preincubation; nitrocefin substrate
# Procedure: as §1, §2
# OXA-23 = OXA-23 (Acinetobacter baumannii, UniProt Q9L4P2); assay: Ki app of β-lactamase inhibition, purified enzyme; assay type: biochemical; settings: 10-minute preincubation; nitrocefin substrate
# Procedure: as §1, §2
# P99 = P99 (Enterobacter cloacae, UniProt P05364); assay: Ki app of β-lactamase inhibition, purified enzyme; assay type: biochemical; settings: 10-minute preincubation; nitrocefin substrate; read-out: Ki app
# Procedure: as §1, §2
# PDC1 = PDC1 (Pseudomonas aeruginosa, UniProt P24735); assay: Ki app of β-lactamase inhibition, purified enzyme; assay type: biochemical; settings: 10-minute preincubation; nitrocefin substrate
# Procedure: as §1, §2
# L1 = molecular target: T1, L1 (Stenotrophomonas maltophilia, UniProt P52700); assay: Ki of metallo-β-lactamase inhibition, purified enzyme; assay type: biochemical; settings: 10-minute preincubation; nitrocefin substrate
# T1 construct: made in house
# Procedure: as §1, §2
# VIM-1 = VIM-1 (Pseudomonas aeruginosa, UniProt A0A0F7KYQ8); assay: as above; assay type: biochemical; settings: 10-minute preincubation, nitrocefin substrate
# Procedure: as §1, §2
# PAM4175 (no β-lactamase) = assay: MIC, engineered isogenic strain; assay type: cell-based, P. aeruginosa; settings: BLIs at fixed 4 µg/mL
# [1] = test system: PAM4743 producing CTX-M-15; assay: MIC, engineered isogenic strain; assay type: cell-based, P. aeruginosa; settings: CTX-M-15, class A; BLIs at fixed 4 µg/mL
# PAM4135 producing KPC-2 = assay: MIC, engineered isogenic strain; assay type: cell-based, P. aeruginosa; settings: KPC-2, class A; BLIs at fixed 4 µg/mL
# PAM4825 producing MIR-1 = assay: MIC, engineered isogenic strain; assay type: cell-based, P. aeruginosa; settings: MIR-1, class C; BLIs at fixed 4 µg/mL
# PAM4907 producing PER-4 = assay: MIC, engineered isogenic strain; assay type: cell-based, P. aeruginosa; settings: PER-4, class A; BLIs at fixed 4 µg/mL
# PAM4744 producing SME-2 = assay: MIC, engineered isogenic strain; assay type: cell-based, P. aeruginosa; settings: SME-2, class A; BLIs at fixed 4 µg/mL
# PAM4908 producing VEB-1 = assay: MIC, engineered isogenic strain; assay type: cell-based, P. aeruginosa; settings: VEB-1, class A; BLIs at fixed 4 µg/mL
# PAM4745 producing P99 = assay: MIC, engineered isogenic strain; assay type: cell-based, P. aeruginosa; settings: P99, class C; BLIs at fixed 4 µg/mL
# PAM4869 producing PDC-1 = assay: MIC, engineered isogenic strain; assay type: cell-based, P. aeruginosa; settings: PDC-1, class C; BLIs at fixed 4 µg/mL
# PAM4179 producing NDM-1 = assay: MIC, engineered isogenic strain; assay type: cell-based, P. aeruginosa; settings: NDM-1, class B; BLIs at fixed 4 µg/mL
# PAM4917 producing NDM-7 = assay: MIC, engineered isogenic strain; assay type: cell-based, P. aeruginosa; settings: NDM-7, class B; BLIs at fixed 4 µg/mL
# PAM4888 producing IMP-4 = assay: MIC, engineered isogenic strain; assay type: cell-based, P. aeruginosa; settings: IMP-4, class B; BLIs at fixed 4 µg/mL
# PAM4198 producing IMP-15 = assay: MIC, engineered isogenic strain; assay type: cell-based, P. aeruginosa; settings: IMP-15, class B; BLIs at fixed 4 µg/mL
# PAM4890 producing IMP-19 = assay: MIC, engineered isogenic strain; assay type: cell-based, P. aeruginosa; settings: IMP-19, class B; BLIs at fixed 4 µg/mL
# PAM4889 producing IMP-26 = assay: MIC, engineered isogenic strain; assay type: cell-based, P. aeruginosa; settings: IMP-26, class B; BLIs at fixed 4 µg/mL
# Chain of P99 (P05364 21-381): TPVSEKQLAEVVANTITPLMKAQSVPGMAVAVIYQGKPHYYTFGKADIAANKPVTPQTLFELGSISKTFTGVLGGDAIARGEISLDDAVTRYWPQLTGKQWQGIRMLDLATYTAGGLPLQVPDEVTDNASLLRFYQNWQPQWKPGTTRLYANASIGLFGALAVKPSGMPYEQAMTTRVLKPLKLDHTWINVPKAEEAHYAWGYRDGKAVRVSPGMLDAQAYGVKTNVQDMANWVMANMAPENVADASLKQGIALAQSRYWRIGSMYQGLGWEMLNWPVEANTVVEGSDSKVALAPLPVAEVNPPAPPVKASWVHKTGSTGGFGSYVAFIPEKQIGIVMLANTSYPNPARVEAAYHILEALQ
# Chain of CTX-M-14 (Q9L5C7 entry or part of it): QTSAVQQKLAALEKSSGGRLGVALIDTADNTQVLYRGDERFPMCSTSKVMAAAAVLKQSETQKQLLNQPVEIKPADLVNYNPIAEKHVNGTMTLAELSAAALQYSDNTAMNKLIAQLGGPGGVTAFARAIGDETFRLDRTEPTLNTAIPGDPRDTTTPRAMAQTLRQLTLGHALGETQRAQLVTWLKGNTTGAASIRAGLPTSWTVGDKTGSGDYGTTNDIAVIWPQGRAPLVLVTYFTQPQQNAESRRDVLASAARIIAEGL
# Chain of OXA-23 (Q9L4P2 18-273): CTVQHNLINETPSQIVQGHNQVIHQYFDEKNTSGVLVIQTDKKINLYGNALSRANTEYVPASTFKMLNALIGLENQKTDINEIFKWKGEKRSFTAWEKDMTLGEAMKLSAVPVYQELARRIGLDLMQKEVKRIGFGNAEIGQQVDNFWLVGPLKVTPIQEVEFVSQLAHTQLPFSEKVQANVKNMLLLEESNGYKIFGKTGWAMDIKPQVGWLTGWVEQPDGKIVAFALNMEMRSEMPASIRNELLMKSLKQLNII
# T1 sequence (P52700 34-290): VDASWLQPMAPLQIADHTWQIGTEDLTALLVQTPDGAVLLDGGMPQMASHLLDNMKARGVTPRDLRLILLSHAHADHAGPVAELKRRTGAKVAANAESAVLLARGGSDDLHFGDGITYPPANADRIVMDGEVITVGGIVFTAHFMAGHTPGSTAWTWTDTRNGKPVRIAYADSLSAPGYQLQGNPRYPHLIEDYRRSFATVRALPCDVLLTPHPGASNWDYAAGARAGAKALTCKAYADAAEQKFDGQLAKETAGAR
# Chain of CTX-M-15 (Q9EXV5 entry or part of it): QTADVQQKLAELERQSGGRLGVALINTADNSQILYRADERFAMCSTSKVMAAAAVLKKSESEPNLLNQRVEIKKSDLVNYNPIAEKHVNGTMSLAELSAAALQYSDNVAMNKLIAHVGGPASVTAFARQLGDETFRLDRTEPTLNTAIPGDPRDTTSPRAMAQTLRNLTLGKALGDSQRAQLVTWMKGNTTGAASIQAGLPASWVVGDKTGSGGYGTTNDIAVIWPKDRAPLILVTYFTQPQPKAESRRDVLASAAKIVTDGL
# Chain of PDC1 (P24735 27-397): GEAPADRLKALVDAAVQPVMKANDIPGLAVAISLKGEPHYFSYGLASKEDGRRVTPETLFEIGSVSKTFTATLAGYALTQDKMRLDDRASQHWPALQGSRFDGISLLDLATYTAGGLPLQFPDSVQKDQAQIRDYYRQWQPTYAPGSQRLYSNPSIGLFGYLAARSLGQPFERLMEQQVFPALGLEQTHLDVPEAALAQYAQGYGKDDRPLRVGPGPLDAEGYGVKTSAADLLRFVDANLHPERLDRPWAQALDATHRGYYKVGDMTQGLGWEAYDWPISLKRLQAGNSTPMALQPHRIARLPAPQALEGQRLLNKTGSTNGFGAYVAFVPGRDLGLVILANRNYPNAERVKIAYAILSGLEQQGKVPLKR
Compound,Ki (CTX-M-14) [nM],Ki (CTX-M-15) [nM],Ki (OXA-23) [nM],Ki (P99),Ki (PDC1) [nM],Ki (L1) [nM],Ki (VIM-1) [nM],MIC (PAM4175 (no β-lactamase)),MIC [1] [µg/mL],MIC (PAM4135 producing KPC-2) [µg/mL],MIC (PAM4825 producing MIR-1) [µg/mL],MIC (PAM4907 producing PER-4) [µg/mL],MIC (PAM4744 producing SME-2) [µg/mL],MIC (PAM4908 producing VEB-1) [µg/mL],MIC (PAM4745 producing P99) [µg/mL],MIC (PAM4869 producing PDC-1) [µg/mL],MIC (PAM4179 producing NDM-1) [µg/mL],MIC (PAM4917 producing NDM-7) [µg/mL],MIC (PAM4888 producing IMP-4) [µg/mL],MIC (PAM4198 producing IMP-15) [µg/mL],also measured
"NCCN[C@H]1CC[C@H](CC(=O)N[C@H]2Cc3cccc(C(=O)O)c3OB2O)CC1 [Taniborbactam, taniborbactam]",1.2 ± 0.5,2.6 ± 0.1,> 20000,2.4 ± 0.5 nM,22,17000,31 ± 3,–,–,–,–,–,–,–,–,–,–,–,–,–,Ki (VIM-1; listed as taniborbactam): ~30 nM
"O=C(O)c1c(F)ccc2c1OB(O)[C@@H]1C[C@H]21 [Xeruborbactam, xeruborbactam]",0.29 ± 0.06,0.37 ± 0.01,0.74 ± 0.28,8 nM and 8.5 nM,14,1400,32 ± 14,–,–,–,–,–,–,–,–,–,–,–,–,–,–
"CO/N=C(\C(=O)N[C@@H]1C(=O)N2C(C(=O)[O-])=C(C[N+]3(C)CCCC3)CS[C@H]12)c1csc(N)n1 [FEP, cefepime]",–,–,–,–,–,–,–,0.25 µg/mL,> 64,> 64,2,64,0.5,> 64,8,4,> 64,> 64,32,16,MIC (PAM4890 producing IMP-19): 64 µg/mL; MIC (PAM4889 producing IMP-26): 64 µg/mL
"C[C@@H](O)[C@H]1C(=O)N2C(C(=O)O)=C(S[C@@H]3CN[C@H](C(=O)N(C)C)C3)[C@H](C)[C@H]12 [MEM, meropenem]",–,–,–,–,–,–,–,0.125 ^ a,0.25,32,0.5,0.125,8,0.5,1,0.5,32,32,4,1,MIC (PAM4890 producing IMP-19): 1 µg/mL; MIC (PAM4889 producing IMP-26): 8 µg/mL
